Results taken from patent publication US12234504B1 (priority 2023, dated 2025).
Positions of bridges follow the written chain, without caps; N, C: chain ends. Non-standard residues stand in square brackets, D forms with d. Residues, ends and D or L forms follow the SMILES beside them. *: point of attachment. Ileψ(thiazoline)Cys = CC[C@H](C)[C@H](N)C1=N[C@H](C(=O)*)CS1; dOrn = NCCC[C@@H](N)C(=O)O

Experiments:
E. coli DNA gyrase [1] = molecular target: T1, E. coli DNA gyrase (Escherichia coli, UniProt P0AES4+P0AES6); type: biochemical; conditions: 50 μM compound; for Fluorescent Intensity #1 / Fluorescent Intensity #2 / Mean Fluorescent Intensity: 50-compound library screen; for Fluorescent Intensity #1: duplicate 1; for Fluorescent Intensity #1 / Fluorescent Intensity #2: low fluorescence = gyrase poison; for Fluorescent Intensity #2: duplicate 2; for Mean Fluorescent Intensity: mean of duplicates; for hit in HTS pilot screen (inhibition ≥50% cutoff): duplicate; for fluorescence intensity compared with negative controls (in words): HTS screen
T1 construct: made in house
Procedure: FIGS. 6A-6B. High throughput screening (HTS) pilot screen of the 50-compound library for E. coli DNA gyrase poisoning inhibitors in duplicate. A final compound concentration of 50 μM was used. […] (A) Fluorescence raw data.
A Fluorescence-Based, T5 Exonuclease-Amplified DNA Cleavage Assay to Identify Poisoning Inhibitors for E. coli DNA Gyrase.
For negative control experiments, 1% DMSO was used. […] 0.5 mg/mL of proteinase K was then added to the reaction mixtures to digest DNA gyrase at 50° C. for 30 min. After the DNA samples were diluted 100 times using 1×NEB buffer 4 (20 mM Tris-Acetate, pH 7.9, 50 mM KAc, 10 mM Mg(AC)2, and 1 mM DTT), 30 μL of each DNA sample was transfer to a well of a 384-well plate. 200 nM of T5 exonuclease was used to digest DNA fragment for 2 hours at 37° C. 1×SYBR™ Green was added to all DNA samples. Fluorescence intensity was measured using a Biotek microplate reader with excitation wavelength of 497 nm and emission wavelength of 525 nm.
Z′ was calculated by the following equation: […]

T5 exonuclease = molecular target: T2, T5 exonuclease (Escherichia phage T5, UniProt P06229); test: Detergent inhibition of T5 exonuclease on lambda DNA HindIII digest; type: biochemical; parameters: detergent concentration that inhibits T5 exonuclease: dose or concentration left out as unconfirmed
T2 construct: made in house
Procedure: FIGS. 2A-2F. Agarose gel-based DNA gyrase cleavage assays were performed as described in Materials and Methods. […] Lane 7 is Lambda DNA HindIII digest as the molecular standard. […] (C) The appearance and disappearance of the gyrase-mediated linear band of plasmid pBR322 is dependent of the E. coli DNA gyrase concentration. High concentrations of E. coli DNA gyrase also cause disappearance of the supercoiled plasmid in the gyrase-mediated DNA cleavage assays. […] 500 ng of a DNA HindIII digest was digested using 50 nM of T5E in 20 μL of 1× gyrase-mediated DNA cleavage buffer (20 mM Tris-HCl pH 8, 50 mM KAc, 10 mM MgCl2, 2 mM DTT, 1 mM ATP, 0.1 mg/mL BSA) for 30 min in the presence of different concentrations of SDS. […] contained 0.000625, 0.00125, 0.0025, 0.005, 0.0125, and 0.025%, respectively. (E) Effects of sarkosyl on T5 exonuclease (T5E). 500 ng of a DNA HindIII digest was digested using 50 nM of T5E in 20 μL of 1× gyrase-mediated DNA cleavage buffer for 30 min in the presence of different concentrations of sarkosyl. Lanes 3 to 10 contained 0.005, 0.0125, 0.015, 0.02, 0.025, 0.05, 0.125, and 0.25%, respectively. (F) 50 nM of T5 exonuclease completely digested 500 ng of a DNA HindIII digest in 1× gyrase-mediated DNA cleavage buffer in the presence of 0.00125%. Lanes 1-7 contained 0, 5, 10, 20, 30, 40, and 50 nM of T5 exonuclease, respectively.
FIG. 3. […]

E. coli DNA gyrase [2] = molecular target: T1, E. coli DNA gyrase; type: biochemical; conditions: for fluorescence intensity of the DNA samples (in words): validation with 10 antibiotics, FIG. 5A; for effect on SYBR Green fluorescence intensity (in words): 20 μM compound, FIG. 7A
E. coli DNA gyrase [3] = molecular target: T1, E. coli DNA gyrase; test: Agarose gel-based DNA gyrase-mediated DNA cleavage assay; type: biochemical; conditions: FIG. 7B
Procedure: FIGS. 2A-2F. Agarose gel-based DNA gyrase cleavage assays were performed as described in Materials and Methods. […] Lane 7 is Lambda DNA HindIII digest as the molecular standard. […] 500 ng of a DNA HindIII digest was digested using 50 nM of T5E in 20 μL of 1× gyrase-mediated DNA cleavage buffer (20 mM Tris-HCl pH 8, 50 mM KAc, 10 mM MgCl2, 2 mM DTT, 1 mM ATP, 0.1 mg/mL BSA) for 30 min in the presence of different concentrations of SDS. […] (E) Effects of sarkosyl on T5 exonuclease (T5E). 500 ng of a DNA HindIII digest was digested using 50 nM of T5E in 20 μL of 1× gyrase-mediated DNA cleavage buffer for 30 min in the presence of different concentrations of sarkosyl. […] Lanes 1-7 contained 0, 5, 10, 20, 30, 40, and 50 nM of T5 exonuclease, respectively.
DNA Gyrase and Human DNA Topoisomerase IIα Mediated DNA Cleavage Assay.
250 ng of relaxed plasmid pBR322 and 20 nM of E. coli DNA gyrase or human DNA topoisomerase IIα were mixed and incubated in 1×gyrase-mediated DNA cleavage buffer (20 mM Tris-HCl pH 8, 50 mM KAc, 10 mM MgCl2, 2 mM DTT, 1 mM ATP, 0.1 mg/mL BSA) at 37° C. for 15 minutes in the presence of an inhibitor or compound. After the incubation, 0.2% SDS and 0.1 mg/ml proteinase K were added to the reaction mixtures to trap the topoisomerase-inhibitor-DNA complex and digest the topoisomerase, respectively, by incubating for an additional 30 min at 37° C. DNA samples were analyzed in 1% agarose gel containing […] ethidium bromide in 1′TAE buffer and photographed under UV light. […] Etoposide was used as a positive control for human DNA topoisomerase IIα-mediated DNA cleavage assays.

E. coli DNA gyrase [4] = molecular target: T1, E. coli DNA gyrase; conditions: read-out: IC50 against E. coli DNA gyrase; cited from earlier work

T1 sequence (P0AES4 whole entry, one chain of several): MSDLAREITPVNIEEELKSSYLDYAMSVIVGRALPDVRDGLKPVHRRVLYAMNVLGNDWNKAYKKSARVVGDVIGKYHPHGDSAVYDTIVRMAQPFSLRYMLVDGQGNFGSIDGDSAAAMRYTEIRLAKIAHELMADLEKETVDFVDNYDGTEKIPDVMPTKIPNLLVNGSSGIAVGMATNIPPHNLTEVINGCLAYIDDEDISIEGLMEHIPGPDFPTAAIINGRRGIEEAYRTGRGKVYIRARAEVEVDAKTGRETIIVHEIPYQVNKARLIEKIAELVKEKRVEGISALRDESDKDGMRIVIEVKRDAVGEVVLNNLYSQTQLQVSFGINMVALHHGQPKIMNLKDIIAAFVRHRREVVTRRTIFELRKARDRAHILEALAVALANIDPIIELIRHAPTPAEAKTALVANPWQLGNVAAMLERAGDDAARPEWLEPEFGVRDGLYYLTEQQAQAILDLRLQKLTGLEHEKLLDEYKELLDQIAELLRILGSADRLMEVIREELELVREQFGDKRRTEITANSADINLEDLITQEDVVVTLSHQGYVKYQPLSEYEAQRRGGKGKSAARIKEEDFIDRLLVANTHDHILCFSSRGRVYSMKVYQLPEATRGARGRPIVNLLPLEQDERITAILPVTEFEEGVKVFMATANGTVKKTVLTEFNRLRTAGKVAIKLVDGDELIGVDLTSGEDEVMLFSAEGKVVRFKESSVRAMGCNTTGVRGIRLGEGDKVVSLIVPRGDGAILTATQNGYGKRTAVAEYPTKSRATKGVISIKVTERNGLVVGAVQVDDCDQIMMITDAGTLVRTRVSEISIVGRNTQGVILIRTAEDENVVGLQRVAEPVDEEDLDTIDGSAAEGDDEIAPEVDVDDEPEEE
T2 sequence (P06229 whole entry): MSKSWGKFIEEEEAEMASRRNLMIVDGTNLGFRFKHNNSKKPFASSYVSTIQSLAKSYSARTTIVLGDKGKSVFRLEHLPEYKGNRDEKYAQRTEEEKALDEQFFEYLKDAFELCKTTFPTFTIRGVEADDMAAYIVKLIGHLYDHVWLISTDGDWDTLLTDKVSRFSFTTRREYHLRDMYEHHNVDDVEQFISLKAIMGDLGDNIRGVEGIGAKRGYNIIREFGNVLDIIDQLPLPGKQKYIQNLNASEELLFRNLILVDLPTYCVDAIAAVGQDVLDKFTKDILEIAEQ

Molecule | Fluorescent Intensity #1 (E. coli DNA gyrase [1]) | Fluorescent Intensity #2 (E. coli DNA gyrase [1]) | Mean Fluorescent Intensity (E. coli DNA gyrase [1]) | hit in HTS pilot screen (inhibition ≥50% cutoff) (E. coli DNA gyrase [1]) | also measured
O=C[C@H](O)[C@@H](O)[C@@H](O)[C@H](O)CO [D-galactose] | 4111 | 6277 | 5194 |  | 
O=C[C@H](O)[C@@H](O)[C@H](O)[C@H](O)CO [D-glucose] | 4444 | 5984 | 5214 |  | 
O=C[C@H](O)[C@@H](O)[C@@H](O)CO [L-arabinose] | 4824 | 7032 | 5928 |  | 
CCCCCCCCCCCCOS(=O)(=O)[O-].[Na+] [SDS, sodium dodecyl sulfate] |  |  |  |  | effect on T5 exonuclease activity (in words) (T5 exonuclease; 50 nM T5E, FIG. 2D/2E, SDS low concentrations, sarkosyl e.g. 0.015%): completely inhibited T5 exonuclease activity; detergent concentration that inhibits T5 exonuclease (T5 exonuclease; FIG. 3): ≥ 0.05%
CC1(C)S[C@@H]2[C@H](NC(=O)[C@H](N)c3ccccc3)C(=O)N2[C@H]1C(=O)O [ampicillin] |  |  |  |  | fluorescence intensity of the DNA samples (in words) (E. coli DNA gyrase [2]): high
CC[C@H](C)[C@H](N)C1=N[C@H](C(=O)N[C@@H](CC(C)C)C(=O)N[C@H](CCC(=O)O)C(=O)N[C@H](C(=O)N[C@H]2CCCCNC(=O)[C@H](CC(N)=O)NC(=O)[C@@H](CC(=O)O)NC(=O)[C@H](Cc3cnc[nH]3)NC(=O)[C@@H](Cc3ccccc3)NC(=O)[C@H]([C@@H](C)CC)NC(=O)[C@@H](CCCN)NC2=O)[C@@H](C)CC)CS1 [bacitracin] ({Ileψ(thiazoline)Cys}-L[dE]IK[dOrn]I[dF]H[dD]N; lactam 4-C) | 7743 | 6533 | 7138 |  | 
CCN(CC)CCCC(C)Nc1ccnc2cc(Cl)ccc12 (stereo not shown) [chloroquine] |  | 8002 |  |  | 
COc1cccc2c1C(=O)c1c(O)c3c(c(O)c1C2=O)C[C@@](O)(C(=O)CO)C[C@@H]3O[C@H]1C[C@H](N)[C@H](O)[C@H](C)O1 [doxorubicin] |  |  |  | hits and false positive | gyrase-mediated DNA cleavage / gyrase poisoning (in words) (E. coli DNA gyrase [3]): did not cause gyrase-mediated DNA cleavage; effect on SYBR Green fluorescence intensity (in words) (E. coli DNA gyrase [2]): quenched
CS[C@H]1SC[C@H]2C(=O)N(C)[C@@H](C(C)C)C(=O)OC[C@@H](NC(=O)c3cnc4ccccc4n3)C(=O)N[C@@H](C)C(=O)N(C)[C@@H]1C(=O)N(C)[C@@H](C(C)C)C(=O)OC[C@@H](NC(=O)c1cnc3ccccc3n1)C(=O)N[C@@H](C)C(=O)N2C [echinomycin] |  |  |  |  | gyrase-mediated DNA cleavage / gyrase poisoning (in words) (E. coli DNA gyrase [3]): do not possess gyrase poisoning properties; fluorescence intensity compared with negative controls (in words) (E. coli DNA gyrase [1]): significant low fluorescence signals; effect on SYBR Green fluorescence intensity (in words) (E. coli DNA gyrase [2]): did not reduce the fluorescence intensity
CCN1CCN(c2cc3c(cc2F)c(=O)c(C(=O)O)cn3C2CC2)CC1 [enrofloxacin] |  |  |  | hits | 
CCOc1ccc2nc3cc(N)ccc3c(N)c2c1 [etharcridine] |  |  |  |  | gyrase-mediated DNA cleavage / gyrase poisoning (in words) (E. coli DNA gyrase [3]): do not possess gyrase poisoning properties; fluorescence intensity compared with negative controls (in words) (E. coli DNA gyrase [1]): significant low fluorescence signals; effect on SYBR Green fluorescence intensity (in words) (E. coli DNA gyrase [2]): did not reduce the fluorescence intensity
CCn1cc(C(=O)O)c(=O)c2cc(F)c(N3CCNC(C)C3)c(F)c21 (stereo not shown) [lomefloxacin] |  |  |  | hits | 
CCn1cc(C(=O)O)c(=O)c2ccc(C)nc21 [nalidixic acid] |  |  |  | hits | IC50 (E. coli DNA gyrase [4]): > 50 µM; fluorescence intensity compared with negative controls (in words) (E. coli DNA gyrase [1]): much lower
CCn1cc(C(=O)O)c(=O)c2cc(F)c(N3CCNCC3)cc21 [norfloxacin] |  |  |  | hits | 
CCn1cc(C(=O)O)c(=O)c2cc3c(cc21)OCO3 [oxolinic acid] |  |  |  | hits | 
Nc1ccc(S(N)(=O)=O)cc1 [sulfanilamide] |  |  |  |  | fluorescence intensity of the DNA samples (in words) (E. coli DNA gyrase [2]): high
Cc1ccc(C(=O)Nc2ccc(S(=O)(=O)O)c3cc(S(=O)(=O)O)cc(S(=O)(=O)O)c23)cc1NC(=O)c1cccc(NC(=O)Nc2cccc(C(=O)Nc3cc(C(=O)Nc4ccc(S(=O)(=O)O)c5cc(S(=O)(=O)O)cc(S(=O)(=O)O)c45)ccc3C)c2)c1 [suramin] |  |  |  |  | gyrase-mediated DNA cleavage / gyrase poisoning (in words) (E. coli DNA gyrase [3]): do not possess gyrase poisoning properties; fluorescence intensity compared with negative controls (in words) (E. coli DNA gyrase [1]): significant low fluorescence signals; effect on SYBR Green fluorescence intensity (in words) (E. coli DNA gyrase [2]): did not reduce the fluorescence intensity
CN(C)[C@@H]1C(O)=C(C(N)=O)C(=O)[C@@]2(O)C(O)=C3C(=O)c4c(O)cccc4[C@@](C)(O)[C@H]3C[C@@H]12 [tertracycline] | 9594 | 9920 | 9757 |  | 
CC[C@@]1(O)C(=O)OCc2c1cc1n(c2=O)Cc2cc3c(CN(C)C)c(O)ccc3nc2-1 [topotecan] |  |  |  |  | gyrase-mediated DNA cleavage / gyrase poisoning (in words) (E. coli DNA gyrase [3]): do not possess gyrase poisoning properties; fluorescence intensity compared with negative controls (in words) (E. coli DNA gyrase [1]): significant low fluorescence signals; effect on SYBR Green fluorescence intensity (in words) (E. coli DNA gyrase [2]): did not reduce the fluorescence intensity
polymyxin B sulfate salt | 6067 | 10508 | 8287.5 |  | fluorescence intensity of the DNA samples (in words) (E. coli DNA gyrase [2]): high
